Our source for the IC50 values is ChEMBL document CHEMBL1145276, “Synthesis and biological evaluation of 6,7-disubstituted 4-aminopyrido[2,3-d]pyrimidines as adenosine kinase inhibitors” (Bioorg Med Chem Lett, 2005).

Test [1] has as its target T1, Adenosine kinase (Homo sapiens, UniProt P55263). Description: Inhibitory concentration against Adenosine Kinase (intact cells).
Test [2] addresses T1, Adenosine kinase. Description: Inhibitory concentration against Adenosine Kinase (enzyme).

In general, IC50 refers to the concentration needed to halve the response being measured. Higher therefore signals weaker potency in that assay.

T1 sequence (P55263 whole entry): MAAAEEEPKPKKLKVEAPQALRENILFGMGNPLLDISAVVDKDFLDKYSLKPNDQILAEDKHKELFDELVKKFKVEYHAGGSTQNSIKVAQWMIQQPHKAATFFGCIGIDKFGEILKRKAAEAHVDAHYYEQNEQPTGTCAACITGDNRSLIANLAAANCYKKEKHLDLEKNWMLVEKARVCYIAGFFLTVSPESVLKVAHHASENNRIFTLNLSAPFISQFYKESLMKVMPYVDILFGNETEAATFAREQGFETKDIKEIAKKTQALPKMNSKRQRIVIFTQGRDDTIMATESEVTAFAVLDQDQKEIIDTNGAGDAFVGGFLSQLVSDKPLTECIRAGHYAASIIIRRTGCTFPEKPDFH

For the molecule `CC(C)Cc1cc2c(N)ncnc2nc1-c1ccc(N(C)C)cc1`, the IC50 was greater than 1000 nM at Adenosine kinase [1] and 200 nM against Adenosine kinase [2].

With `COc1ccc(-c2cc3c(N)ncnc3nc2-c2cccs2)cc1OC`, the figures for the IC50 against Adenosine kinase [1] and against Adenosine kinase [2] were 300 nM and 38 nM, respectively.

For `CCCCc1cc2c(N)ncnc2nc1-c1cccs1`, the IC50 against Adenosine kinase [1] was 767 nM; on Adenosine kinase [2], 11 nM.

For `CCCCCc1cc2c(N)ncnc2nc1-c1ccc(N(C)C)cc1`, the IC50 came to 700 nM at Adenosine kinase [1] and 30 nM against Adenosine kinase [2].

Consider `CN(C)c1ccc(-c2nc3ncnc(N)c3cc2-c2ccccc2)cc1`, for which the IC50 at Adenosine kinase [2] was determined as 350 nM.

On to `Cc1ccc(-c2cc3c(N)ncnc3nc2-c2ccsc2)cc1`, for which the IC50 against Adenosine kinase [1] was greater than 1000 nM; at Adenosine kinase [2], 47 nM.

Turning to `CN(C)c1ccc(-c2cc3c(N)ncnc3nc2-c2ccc(N(C)C)cc2)cc1`, the results for the IC50 against Adenosine kinase [1] and at Adenosine kinase [2] were 367 nM and 183 nM, respectively.

On to `CN(C)c1ccc(-c2nc3ncnc(N)c3cc2CCc2ccccc2)cc1`, for which, at Adenosine kinase [2], the IC50 was 433 nM.

Molecule `CN(C)c1ccc(-c2nc3ncnc(N)c3cc2CCCc2ccccc2)cc1` showed an IC50 against Adenosine kinase [2] of 2230 nM. Against the preceding molecule, the IC50 is about 5.2-fold higher.

`COc1ccc(-c2cc3c(N)ncnc3nc2-c2cccs2)cc1Br`: the IC50 on Adenosine kinase [1] is 375 nM; on Adenosine kinase [2], 8 nM.

Regarding `CN(C)c1ccc(-c2ccc3c(N)ncnc3n2)cc1`, the results for the IC50 at Adenosine kinase [1] and against Adenosine kinase [2] were greater than 10000 nM and 773 nM, respectively.

For the molecule `COc1cccc(-c2cc3c(N)ncnc3nc2-c2ccc(N(C)C)cc2)c1`, on Adenosine kinase [2], the IC50 is greater than 1000 nM.

Take `Cc1ccc(-c2cc3c(N)ncnc3nc2-c2ccc(-c3cncnc3)cc2)cc1`: inhibition against Adenosine kinase [2] was half-maximal at 180 nM (IC50).

In turn, `Cc1ccc(-c2cc3c(N)ncnc3nc2-c2cc3ccccc3o2)cc1` registered an IC50 on Adenosine kinase [2] greater than 1000 nM.

As to `CN(C)c1ccc(-c2nc3ncnc(N)c3cc2-c2ccc(Br)cc2)cc1`, the IC50 was greater than 1000 nM against Adenosine kinase [1] and 20 nM against Adenosine kinase [2].

Regarding `CN(C)c1ccc(-c2nc3ncnc(N)c3cc2-c2cccc(Br)c2)cc1`, the IC50 on Adenosine kinase [1] was greater than 1000 nM; against Adenosine kinase [2], 70 nM.

In the case of `Nc1ncnc2nc(-c3nccs3)c(Cc3cccc(Br)c3)cc12`, half-maximal inhibition at Adenosine kinase [2] (IC50) required 900 nM.

As to `Cc1ccc(-c2cc3c(N)ncnc3nc2-c2cccs2)cc1`, the figures for the IC50 against Adenosine kinase [1] and against Adenosine kinase [2] were 800 nM and 9 nM, respectively.

For `COc1ccc(-c2cc3c(N)ncnc3nc2-c2ccc(N(C)C)cc2)cc1Br`, the figures for the IC50 against Adenosine kinase [1] and against Adenosine kinase [2] were 225 nM and 33 nM, respectively.

For `Nc1ncnc2nc(-c3cccs3)c(Cc3cccc(Br)c3)cc12`, the values for the IC50 against Adenosine kinase [1] and at Adenosine kinase [2] were 650 nM and 3.8 nM, respectively.

As to `COc1ccc(-c2cc3c(N)ncnc3nc2-c2ccc(N(C)C)cc2)cc1OC`, the IC50 against Adenosine kinase [1] was 350 nM; on Adenosine kinase [2], 45 nM.

Regarding `CN(C)c1ccc(-c2cc3c(N)ncnc3nc2-c2ccncc2)cc1`, the IC50 on Adenosine kinase [1] turned out to be 4170 nM; against Adenosine kinase [2] it was 467 nM.

`CN(C)c1ccc(-c2cnc3c(N)ncnc3n2)cc1`: the IC50 at Adenosine kinase [2] worked out at 440 nM.

Regarding `COc1ccc(-c2cc3c(N)ncnc3nc2-c2ccc(N(C)C)cc2)cc1`, at Adenosine kinase [2], the IC50 was found to be 92 nM.

At Adenosine kinase [2], `Cc1ccc(-c2cc3c(N)ncnc3nc2-c2ccc(/C=C/c3ccccn3)cc2)cc1` had an IC50 of 115 nM. The IC50 values of the last two molecules are within 1.5-fold of each other.

With `CN(C)c1ccc(-c2nc3ncnc(N)c3cc2Cc2ccccc2)cc1`, the values for the IC50 against Adenosine kinase [1] and against Adenosine kinase [2] were 650 nM and 114 nM, respectively.
